Assay results published in PubChem BioAssay (NCI).
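Compound exposure: 48 hours, 5 concentrations, 96-well plates. Here, GI50 denotes the concentration required for 50% inhibition of growth. The concentration for full growth arrest is given as TGI.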

Key:
Assay in all cases: inhibition of tumour cell growth, NCI panel, 48 h
HT29 colon = tested on: HT29 colon
UACC-257 melanoma = tested on: UACC-257 melanoma
RXF 393 renal = tested on: RXF 393 renal
OVCAR-5 ovarian = tested on: OVCAR-5 ovarian
SF-268 CNS = tested on: SF-268 CNS
NCI-H522 lung = tested on: NCI-H522 lung
A549 NSCLC = tested on: A549 NSCLC
IGROV1 ovarian = tested on: IGROV1 ovarian
EKVX NSCLC = tested on: EKVX NSCLC
SK-OV-3 ovarian = tested on: SK-OV-3 ovarian

SMILES | GI50 (HT29 colon) [µM] | TGI (HT29 colon) [µM] | GI50 (UACC-257 melanoma) [µM] | TGI (UACC-257 melanoma) [µM] | GI50 (RXF 393 renal) [µM] | TGI (RXF 393 renal) [µM] | GI50 (OVCAR-5 ovarian) [µM] | TGI (OVCAR-5 ovarian) [µM] | GI50 (SF-268 CNS) [µM] | TGI (SF-268 CNS) [µM] | GI50 (NCI-H522 lung) [µM] | TGI (NCI-H522 lung) [µM] | GI50 (A549 NSCLC) [µM] | TGI (A549 NSCLC) [µM] | GI50 (IGROV1 ovarian) [µM] | TGI (IGROV1 ovarian) [µM] | GI50 (EKVX NSCLC) [µM] | TGI (EKVX NSCLC) [µM] | GI50 (SK-OV-3 ovarian) [µM] | TGI (SK-OV-3 ovarian) [µM]
CCOC(=O)C(Cc1ccc(N(CCCl)CCCl)cc1)NC(=O)C(CC(C)C)NC(C)=O (centres undefined) | 1.28 | 5.68 | 1.69 | 5.66 | 0.944 | 2.3 | 3.18 | 12 | 1.09 | 5.51 | 1.13 | 2.65 | 1.73 | 25.6 | 1.52 | 4.72 | 5.95 | 19.7 | 1.38 | 4.94
COc1ccc(-c2nccn2-c2cc(OC)c(OC)c(OC)c2)cc1 | 1.05 | > 46.2 | 73.1 | > 100 | 1.12 | 26.6 | 10.8 | > 79.4 | 16.6 | > 100 | 2.8 | > 100 | 4.94 | > 100 | 1.79 | > 100 | > 54.5 | > 100 | 6.13 | > 25.6
COc1ccc(C2CC(c3ccc(OC)c(OC)c3)=NN2C(=O)c2cc(OC)c(OC)c(OC)c2)cc1 (centres undefined) | 3.07 | > 100 | > 31.5 | > 100 | 0.344 | 3.05 | 9.26 | > 100 | 5.06 | > 100 | 0.56 | – | 2.88 | > 100 | 3.32 | > 100 | 5.25 | > 100 | 1.76 | > 100
O=C(CN1C(=O)c2ccccc2C1=O)NC1(C(=O)O)CCCC1 | – | > 100 | – | > 100 | – | > 100 | – | > 100 | – | > 100 | – | > 100 | – | > 100 | – | > 100 | – | > 100 | – | > 100
C[As](C)SCC(COC(=O)c1ccccc1)OC(=O)c1ccccc1 (centres undefined) | 0.302 | 2.26 | 0.066 | 1.51 | < 0.0169 | 0.0881 | 0.556 | 2 | 0.344 | 4.42 | 0.0836 | 2.92 | 1.45 | 11.3 | 0.918 | 17.1 | 1.86 | 10.7 | 3.16 | 18.1
CC1CCCC2(O1)OC1CC(=O)OC1C1=C2C(=O)c2ccccc2C1=O (centres undefined) | – | 11 | – | 3.95 | – | 4.14 | – | 35 | – | 14.9 | – | 3.65 | – | 35.5 | – | 6.87 | – | 14.2 | – | 30
COC(=O)c1cc2c([nH]c3ccccc32)c(-c2nc3cc(N(S(=O)(=O)c4ccc(C)cc4)S(=O)(=O)c4ccc(C)cc4)c(OC)cc3cc2CO)n1 | > 100 | > 100 | > 100 | > 100 | > 100 | > 100 | > 100 | > 100 | > 100 | > 100 | > 100 | > 100 | > 100 | > 100 | > 100 | > 100 | > 100 | > 100 | > 100 | > 100
COc1cc2c(c(OC)c1OC)-c1c(c3ccc([N+](=O)[O-])cc3c(=O)n1CCCN=[N+]=[N-])C2=O | 94 | > 100 | 0.0793 | 11.9 | 4.81 | 47.3 | > 100 | > 100 | 14.4 | 80.7 | 0.251 | 5.71 | 0.36 | > 100 | 0.949 | 33.3 | > 100 | > 100 | 23.1 | 55.2
CC(=O)NC1C(=O)CC(c2ccccc2)N(C)C1c1ccccc1 (centres undefined) | – | > 100 | – | > 100 | – | > 100 | – | > 100 | – | > 100 | – | > 100 | – | > 100 | – | > 100 | – | > 100 | – | > 100
CCCCc1ccc(C(N)=O)nc1 | > 100 | > 100 | > 100 | > 100 | > 100 | > 100 | > 100 | > 100 | > 100 | > 100 | > 100 | > 100 | > 100 | > 100 | > 100 | > 100 | 48.9 | > 100 | > 100 | > 100
N#CC1=C(N)Oc2c(ccc3ccccc23)C1c1ccccc1Cl (centres undefined) | 0.362 | 12.6 | 11 | 38.2 | 0.238 | 18.6 | 0.545 | 18.8 | 1.11 | 15.5 | 0.0848 | 3.22 | 0.476 | 26.7 | 0.455 | 15.4 | 0.652 | 22.2 | 0.628 | 43.3
COc1ccc(/C(C)=C(\c2ccc(Cl)cc2)c2ccc(OCCN3CCCCC3)cc2)cc1F | 0.65 | > 16.7 | 3.1 | 7.04 | 2.84 | 5.75 | 3.06 | 9.45 | 5.96 | > 16.7 | 3.54 | 7.94 | 4.43 | > 16.7 | 3.16 | 9.37 | 4.78 | > 16.7 | 5.92 | > 16.7
O=C1C2=C(Nc3cc([N+](=O)[O-])ccc3N2)OC1c1c[nH]c2ccc(COc3ccccc3)cc12 (centres undefined) | – | > 100 | – | > 100 | – | > 100 | – | > 100 | – | > 100 | – | > 100 | – | > 100 | – | > 100 | – | > 100 | – | > 100
CCN(CC)CCC(CNc1c2ccc(Cl)cc2nc2ccc(OC)cc12)c1ccccc1 (centres undefined) | 0.219 | 0.664 | 2.01 | 3.63 | 1.23 | 2.68 | 1.94 | 5.64 | 1.33 | 3.8 | 0.555 | 2.1 | 1.51 | 3.49 | 1.21 | 5.11 | 2.32 | 8.3 | 1.64 | 3.5
